The METLIN SMRT retention time set (Domingo-Almenara et al. 2019)

Assay: gradient 5% acetonitrile 3 min, to 50% in 2 min, to 85% in 15 min, held 3 min, 100 µL/min
Details: column: Zorbax Extend-C18 2.1 x 50 mm; eluents: water / acetonitrile, 0.1% formic acid
How it was run: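 A Zorbax Extend-C18 column (2.1 × 50 mm, 1.8 μm) run at 100 μL/min with water and acetonitrile, both containing 0.1% formic acid, separated mixtures of ~100 pure standards. The HPLC was coupled to a quadrupole time-of-flight mass spectrometer operated in positive and negative ionization mode, with dead and dwell volumes of 40 μL and 900 μL. Each retention time was taken from a computationally picked adduct peak that was then manually inspected.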

Point of comparison: `O=C(O)c1nnn(-c2ccc3c(c2)CCC3)c1-c1ccncc1`, RP-LC retention time 662 s. Against it:
- Cc1noc(-c2ccc(SCC(=O)Nc3ccc(S(N)(=O)=O)cc3)nc2)n1 — higher, 705 s
- COc1ccc(-c2noc(-c3cccn(CC(=O)NC(C)C)c3=O)n2)cc1OC — higher, 688 s
- Cc1csc(-c2csc(S(=O)(=O)N3CCC(Cc4ccccc4)CC3)c2)n1 — higher, 1270 s
- CCc1ccc(NC(=O)c2cn(CC)c3ncccc23)cc1 — higher, 962 s
- CCc1ccc(CNC(=O)c2nc3cccnc3n(CC)c2=O)cc1 — higher, 915 s
- Cc1ccc(CNC(=O)c2cccc(-c3nc4cccnc4n3C)c2)o1 — higher, 722 s
- Cc1nn(CCCC(=O)N2CCN(c3ccccn3)CC2)c(=O)c2noc(C)c12 — lower, 580 s
- CCc1cccc(NC(=O)N2CCCC2c2nc(-c3ccc(OC)cc3)no2)c1 (centres undefined) — higher, 925 s
- CCn1nccc1C(=O)N1CCN(C(=O)N2C[C@H]3C[C@H](C2)[C@H]2CCCC(=O)N2C3)CC1 — lower, 609 s
- Cc1noc(C2CCCCN2Cc2nc(-c3cccnc3)no2)n1 (centres undefined) — lower, 656 s
- O=C(Cn1cccc1-c1nnc(C2CCC2)o1)NCc1ccc(F)cc1 — higher, 832 s
- Cc1ccc(-c2ccc3nn(Cc4cccc(Br)c4)c(=O)n3n2)cc1C — higher, 1010 s
- O=C(c1cc(-c2ccncc2)n[nH]1)N1CCN(C(=O)c2cc3ccccc3[nH]2)CC1 — lower, 598 s
- O=C(CSc1nc2ccccc2[nH]c1=O)Nc1ccccc1 — higher, 699 s
- Cc1ccc(S(=O)(=O)N(C)CC2CCOCC2)cc1Cl — higher, 894 s
- CCc1nnc(-c2ccc3ccn(CC(=O)Nc4ccc(Cl)cn4)c3c2)o1 — higher, 843 s
- Fc1ccccc1-c1nc(-c2cccc(-c3ccn[nH]3)c2)no1 — higher, 977 s
- Cc1c(C(=O)N2CCN(C(=O)c3ccco3)CC2)[nH]c2ccccc12 — higher, 729 s
- O=C(Nc1nc(-c2ccccc2)cs1)c1c(-c2ccc(F)cc2)nc2n1CCS2(=O)=O — higher, 1020 s
- CC1CN(C(=O)C2CCN(S(=O)(=O)c3cccnc3)CC2)c2ccccc2O1 (centres undefined) — higher, 825 s
- CCc1ccc(NC(=O)c2cc(=O)n(C)c3c2c(=O)n(C)c(=O)n3C)cc1 — higher, 870 s
- COc1ccc(Cc2nc(-c3ccc4c(c3)nnn4CCC(=O)N3CCCC3)no2)cc1 — higher, 839 s
- CSc1ccc(CNC(=O)C2CCCN(c3nc4c(s3)c(C)nn4-c3ccc(C)cc3)C2)cc1 (centres undefined) — higher, 1210 s
- O=C1CCN(C(=O)COc2ccccc2Cl)c2ccccc2N1 — higher, 718 s
- Nc1ncnc(N2CCc3ccccc32)c1[N+](=O)[O-] — higher, 697 s
- COc1ccccc1-c1nc(-c2cccc(-c3ccnn3C)c2)no1 — higher, 1020 s
- CCOC(=O)Cn1c(=O)c2c(nc3n2CC(C)CN3CCc2ccccc2)n(C)c1=O (centres undefined) — higher, 985 s
- OCCc1nc2ccccc2n1C/C=C/c1ccccc1 — lower, 586 s
- CN(CC1CCOCC1)C(=O)Nc1ccc(C(F)(F)F)cc1 — higher, 812 s
- CC(C)c1noc(-c2cc(=O)n(CC(=O)Nc3ccc(Cl)cc3F)c3ccccc23)n1 — higher, 1100 s
- CCN1CCN(CCNC(=O)C(C)C2CCN(C(=O)c3cc4cc(Cl)ccc4[nH]3)CC2)CC1 (centres undefined) — lower, 630 s
- O=C(NC1CCCC1)c1ccc(Cn2nc(N3CCN(c4ccc(F)cc4)CC3)ccc2=O)o1 — higher, 853 s
- Cc1ccc(C)c(C(=O)N2CCCC2c2nc(-c3cccc(Cl)c3)no2)c1 (centres undefined) — higher, 1190 s
- CC1Cc2ccccc2N1C(=O)C1CCN(S(=O)(=O)c2cn(C(C)C)cn2)CC1 (centres undefined) — higher, 779 s
- COc1cc(NC(=O)CSc2ncc(-c3cccc(Cl)c3)o2)cc(OC)c1OC — higher, 896 s
- CC1(C)Cc2cccc(OCC(=O)NCCc3c[nH]c4ccccc34)c2O1 — higher, 850 s
- CC(C)(C)OC(=O)N1CCN(c2ncc(C(=O)NCc3ccccc3)c(N)n2)CC1 — higher, 743 s
- CCCCS(=O)(=O)N1CC=C(c2cn(C)c3ncccc23)CC1 — higher, 879 s
- CCOC(=O)C1=C(CN2CCC(C(=O)OCC)CC2)NC(=O)NC1c1ccc(Cl)cc1 (centres undefined) — higher, 673 s
- CCCNCc1ccc(-c2ccccc2)o1 — lower, 641 s
- Cc1oc(-c2[nH]ncc2C(=O)N2CCCC2)cc1S(=O)(=O)NCc1ccc(F)cc1F — higher, 710 s
- COC(=O)c1ccc(NC(=O)Cn2c(-c3cccnc3)nc3ccccc32)cc1 — higher, 708 s
- COc1ccc(CN2CCC(C3CCNC3)CC2)c(Cl)c1OC (centres undefined) — lower, 556 s
- Cc1cc2nn(CC(=O)Nc3ccc(F)cc3)c(=O)n2c(-c2ccccc2)n1 — higher, 785 s
- COc1ccc(-c2nc3cnccn3c2Nc2ccccc2OC)cc1 — higher, 863 s
- CC1CSc2ccc(S(=O)(=O)N3CCN(c4ccccn4)CC3)cc2NC1=O (centres undefined) — lower, 647 s
- CCCCNC(=O)CN1C(=O)C2CCCCN2c2ccc(C(=O)N3CCCC3)cc21 (centres undefined) — higher, 743 s
- Cc1ccc(C)c(-c2cc3c(=O)n(Cc4nc(-c5ccc6c(c5)OCO6)no4)ncn3n2)c1 — higher, 683 s
- CCOC(=O)CNC(=O)N1CCc2cc(-c3ccc(C(=O)N4CCOCC4)cc3)ccc21 — higher, 723 s
- CC(C)(C)CC(=O)Nc1ccc2c(c1)N(C(=O)c1ccco1)CCC2 — higher, 866 s
- CCN(CCCc1ccccc1)CCCc1ccccc1 — higher, 874 s
- CCc1cc(N2CCN(C(=O)c3ccc(F)cc3)CC2)nc2nncn12 — lower, 548 s
- CCc1cc(=O)n(CC(=O)NCc2ccc3c(c2)OCO3)c(N2CCOCC2)n1 — higher, 677 s
- Cc1ccc2[nH]cc(CCN3CC(C(=O)N4CCCCC4)CC3=O)c2c1 (centres undefined) — higher, 768 s
- Cc1cc(-c2nnc(C3CCC3)o2)c(C)n1CC(=O)Nc1ccccc1 — higher, 846 s
- Cc1ccc2ncn(C3CCN(C(=O)Nc4cc(Cl)ccc4C)CC3)c(=O)c2c1 — higher, 911 s
- O=[N+]([O-])c1cn2c(n1)OC[C@@H](OCc1ccc(OC(F)(F)F)cc1)C2 — higher, 916 s
- O=C(CN1CCN(Cc2ccccc2)C1=O)N1CCN(c2ccccc2)CC1 — higher, 788 s
- CCOC(=O)c1c(C)[nH]c(CCC(=O)NCc2ccc(C)o2)c1C — higher, 816 s
- CS(=O)(=O)N1CCCc2ccc(NS(=O)(=O)c3ccc(Cl)s3)cc21 — higher, 849 s
- COc1ccc(N2CCN(C(=O)C3CCN(c4cnc5nccnc5c4)CC3)CC2)cc1 — lower, 634 s
- CCCS(=O)(=O)c1nc2ccc(NS(=O)(=O)c3ccc(C(C)(C)C)cc3)cc2s1 — higher, 1110 s
- Cc1ccc(C)c(NS(=O)(=O)c2ccc3c(c2)C(=O)N(C)c2ncccc2O3)c1 — higher, 970 s
- Cc1ccc2c(C(=O)NCCc3cccs3)cc(NC(=O)C(C)C)cc2n1 — lower, 643 s
- COc1ccccc1/C=C/c1nc(-c2ccc3oc(C)nc3c2)no1 — higher, 1080 s
- COc1ccc(-c2cc3nn(CC(=O)NCC4CCCO4)c(=O)n3c(C)n2)cc1 (centres undefined) — higher, 728 s
- Cc1cccc2nc(-c3ccccc3)c(Nc3ccc4c(c3)OCCO4)n12 — higher, 679 s
- O=C(Cc1cccs1)N1CCCn2nc(-c3ccncc3)cc2C1 — lower, 591 s
- CCc1cc(=O)n(CC(=O)N2CCN(c3ccccc3F)CC2)c(N2CCOCC2)n1 — higher, 761 s
- CC(C)NC(=O)c1c(OCC2CC2)cc(=O)n2c1CCCCC2 — higher, 673 s
- COc1ccc(Cc2nc3nccc(-c4cccnc4)n3n2)cc1 — higher, 692 s
- O=C(CCn1nnc2cc(-c3noc(COc4ccccc4)n3)ccc21)N1CCCC1 — higher, 862 s
- CNS(=O)(=O)c1cccnc1Nc1cccc(C(C)C)c1 — higher, 1080 s
- CCCNC(=O)CSc1nc2nc(C)cc(C)n2n1 — lower, 611 s
- CCC(C)NC(=O)CN1C(=O)C2CCCCN2c2ccc(S(=O)(=O)N3CCCC3)cc21 (centres undefined) — higher, 850 s
- Cc1noc(/C=C/c2ccc(F)cc2F)c1S(=O)(=O)N1CCC(C(=O)Nc2nccs2)CC1 — higher, 1050 s
- CC(C)n1c(N2CCN(C(=O)Cc3cccs3)CC2)cc(=O)n(C(C)C)c1=O — higher, 829 s
- COC(=O)C1CCN([C@H]2CS(=O)(=O)C[C@@H]2S(=O)(=O)c2ccc(Cl)cc2)CC1 — higher, 856 s
- Cn1cc(-c2ccncc2)cc1C(=O)NCc1ccccc1C(F)(F)F — higher, 672 s
- Cn1c(=O)c(N2CCCC(C(=O)NCCCN3CCCCCC3)C2)nc2cccnc21 (centres undefined) — lower, 581 s
- Cc1ccc(C)c(Nc2nc(-c3ccncc3)nc3ccccc23)c1 — higher, 772 s
- CCc1noc(NC(C)=O)c1-c1ccc(OC)c(S(=O)(=O)N2CCC3(CC2)OCCO3)c1 — higher, 714 s
- CCOC(=O)Cn1cccc(S(=O)(=O)N2CCC(C)CC2)c1=O — higher, 814 s
- O=C(Nc1cnn(-c2ncc(N3CCSCC3)cn2)c1)C1CCCC1 — higher, 737 s
- CCOc1ccccc1N1CCN(CC(O)c2ccc3c(c2)OCO3)CC1 (centres undefined) — higher, 664 s
- COc1ccc(N2C(=O)C3N=NN(c4ccc(F)cc4)C3C2=O)cc1 (centres undefined) — higher, 923 s
- Cc1ccc(Nc2c(-c3ccccc3O)nc3ncccn23)cc1C — higher, 951 s
- Cc1c(CCC(=O)N2CCC(C(N)=O)CC2)c(=O)oc2cc3oc4c(c3cc12)CCCC4 — higher, 795 s
